Measurements from patent publication US5587373A, “2-acyloxycephem derivatives” (Farmitalia Carlo Erba S.r.l., priority 1993, dated 1996).
Like-named read-outs stand apart in the source and are kept apart here.

Target: T1, human leucocyte elastase (HLE) (Homo sapiens, UniProt P08246)
T1 construct: purchased Calbiochem
T1 sequence (P08246 30-267): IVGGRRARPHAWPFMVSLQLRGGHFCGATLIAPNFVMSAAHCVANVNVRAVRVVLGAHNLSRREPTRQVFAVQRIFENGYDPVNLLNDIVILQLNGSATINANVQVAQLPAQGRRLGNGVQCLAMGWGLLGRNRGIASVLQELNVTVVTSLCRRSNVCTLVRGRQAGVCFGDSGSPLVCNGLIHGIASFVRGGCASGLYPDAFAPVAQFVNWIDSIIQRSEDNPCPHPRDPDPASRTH
Assay: HLE (human leucocyte elastase) inhibition kinetics
Type: biochemical
Settings: 37° C., pH 7.4; for kinact/KI: rate of formation of the HLE-inhibitor complex, read-out: "Efficacy" K5 /Ki
Source text: Vs =steady state rate Vz =zero time rate Vo =rate at [I]=0 Km =Michaelis constant for the enzyme substrate pair (independently determined under the same experimental conditions). Full details of the Experimental Protocol are reported in […] et al., Eur. J. Med. Chem. 1992, 27, 875-890.

[1] = Table 3, * outside determination limits
[2] = Table 2, apparent dissociation constant of HLE-inhibitor complex at steady rate, read-out: Potency Ki^SS
[3] = Table 3, * outside determination limits, read-out: "Potency" Ki ^33

Compound | "Efficacy" K5 /K1 [1] | Ki [2] | kinact/KI (Table 2) | Ki [3]
CO[C@H]1C(=O)N2C(C(=O)C(C)(C)C)=C(CSc3nnnn3C)C(OC(=O)c3ccccc3)S(=O)(=O)[C@H]12 (stereo partly drawn) [Compound 19, 2-Benzoyloxy-4-tert-butylcarbonyl-7α-methoxy-3-(1-methyl-1,2,3,4-tetrazol-5-yl)thiomethyl-3-cephem 1,1-dioxide] | < 2 M⁻¹ s⁻¹ | – | – | –
CO[C@H]1C(=O)N2C(C(=O)C(C)(C)C)=C(C)C(OC(=O)c3ccc4ccccc4c3)S(=O)(=O)[C@H]12 (stereo partly drawn) [Compound 11] | < 2 M⁻¹ s⁻¹ | – | – | –
CO[C@H]1C(=O)N2C(C(=O)C(C)(C)C)=C(C)CS(=O)(=O)[C@H]12 [FCE 25500, reference compound] | – | 1.3 µM | 60 M⁻¹ s⁻¹ | –
CO[C@H]1C(=O)N2C(C(=O)C(C)(C)C)=C(C)C(OC(=O)c3ccccc3)S(=O)(=O)[C@H]12 (stereo partly drawn) [Compound 2, 2-Benzoyloxy-4-tert-butylcarbonyl-7α-methoxy-3-methyl-3-cephem 1,1-dioxide] | – | < 0.002 µM | – | –
CO[C@H]1C(=O)N2C(C(=O)c3ccccc3)=C(C)C(OC(=O)c3ccc(C(=O)O)cc3)S(=O)(=O)[C@H]12 (stereo partly drawn) [Compound 25, 4-Benzoyl-2-(4-carboxybenzoyl)oxy-7α-methoxy-3-methyl-3-cephem 1,1-dioxide] | 29 M⁻¹ s⁻¹ | – | – | 34 µM
CO[C@H]1C(=O)N2C(C(=O)C(C)(C)C)=C(C)C(OC(=O)c3ccc(C(=O)c4ccccc4)cc3)S(=O)(=O)[C@H]12 (stereo partly drawn) [Compound 83, 2-[4-(Benzoyl)benzoyloxy]-4-tert-butylcarbonyl-7α-methoxy-3-methyl-3-cephem 1,1-dioxide] | 2 M⁻¹ s⁻¹ | – | – | 500 µM
CO[C@H]1C(=O)N2C(C(=O)c3ccccc3)=C(C)C(OC(=O)c3ccccc3)S(=O)(=O)[C@H]12 (stereo partly drawn) [Compound 24, 2-Benzoyloxy-7α-methoxy-3-methyl-4-phenylcarbonyl-3-cephem 1,1-dioxide] | 8 M⁻¹ s⁻¹ | – | – | –

The next lines start with the values.

"Efficacy" K5 /K1 [1] | Ki [2] | kinact/KI (Table 2) | Ki [3] | Compound
– | 0.075 µM | 9200 M⁻¹ s⁻¹ | – | CO[C@H]1C(=O)N2C(C(=O)N3CCCC3)=C(CSc3nc(=O)c(O)nn3C)CS(=O)(=O)[C@H]12 [L-659,286, reference compound]
< 2 M⁻¹ s⁻¹ | – | – | 700 µM | CO[C@H]1C(=O)N2C(C(=O)C(C)(C)C)=C(C)C(OC(=O)c3ccc(CSc4nc(=O)c(O)nn4C)cc3)S(=O)(=O)[C@H]12 (stereo partly drawn) [Compound 38, 4-tert-Butylcarbonyl-2-{4-[(2,5-dihydro-6-hydroxy-2-methyl-5-oxo-1,2,4-triazin-3-yl)thiomethyl]benzoyloxy}-7α-methoxy-3-methyl-3-cephem 1,1-dioxide]
< 2 M⁻¹ s⁻¹ | – | – | – | CCCCC(CC)C(=O)OC1C(C)=C(C(=O)C(C)(C)C)N2C(=O)[C@H](OC)[C@H]2S1(=O)=O (stereo partly drawn) [Compound 96, 4-tert-Butylcarbonyl-2-(2-ethylhexanoyl)oxy-7α-methoxy-3-methyl-3-cephem 1,1-dioxide]
